From patent EP4685153A1 (priority 2023, dated 2024)
Residues, ends and D or L forms follow the SMILES beside them. *: point of attachment. Succinyl(4-O-cholesteryl) = CC(C)CCC[C@@H](C)[C@H]1CC[C@H]2[C@@H]3CC=C4C[C@@H](OC(=O)CCC(=O)*)CC[C@]4(C)[C@H]3CC[C@]12C

Columns and labels:
[1] = system: HIV-1 strain SG3.1 living virus; conditions: for IC50: strain SG3.1 living virus
[2] = system: HIV-1 strain JRFL pseudovirus; conditions: for IC50: strain JRFL pseudovirus
[3] = system: representative pandemic HIV-1 strain pseudoviruses; conditions: for IC50: representative pandemic strain pseudoviruses, 48 h; for inhibitory activity against 12 pseudoviruses higher than that of the T20: versus T20
[4] = system: T20-resistant mutant strains (HIV-1 strain NL4-3); conditions: for IC50: T20-resistant mutant strains ( strain NL4-3, 48 h); for inhibitory activity against 12 drug-resistant mutant strains higher than that of the LP-98: versus LP-98
[5] = Circular dichroism of lipopeptide alone; type: physicochemical; conditions: CD, 10 µM in PBS pH 7.2
[6] = system: HIV-1 envelope protein (Env); assay: Env-mediated cell-cell fusion inhibition (DSP reporter system); conditions: for IC50: read-out: average IC50 value, membrane fusion of 12 viruses, average over Env of 12 representative pandemic HIV-1 strains; for inhibitory activity against membrane fusions of 12 viruses higher than that of the T20: versus T20
[7] = biological target: N44 (Human immunodeficiency virus type 1 group M subtype B, UniProt P04578); assay: Circular dichroism of lipopeptide complex with target sequence N44; conditions: CD; for Tm value of the mixture with N44: [θ]222, 20-98 °C at 2 °C/min; for α-helix content of the mixture with N44: lipopeptide and N44 each 10 µM in PBS pH 7.2
[8] = system: HIV-1 strain NL4-3 pseudovirus; conditions: for IC50: strain NL4-3 pseudovirus
[9] = system: EBOV; conditions: 48 h
[10] = system: RABV; conditions: 48 h
[11] = Human serum stability experiment (antiviral activity after incubation); conditions: 20% human serum, 37 °C, 0 to 240 minutes; NL4-3 pseudovirus, TZM-bl cells
[12] = In vitro cytotoxicity (CCK-8), 293T/ACE2 cells; type: cell-based; conditions: human, CCK-8, 48 hours
Method: (§1) The in vitro cytotoxicity was detected by using a CCK-8 cell proliferation/toxicity assay kit (manufacturer: Abbkine, Cat. No.: KTC 011001). […] By using GraphPad Prism software, the inhibition rate curve was fitted and the half-maximal cytotoxic concentration (CC50) of the drug was calculated.

[13] = system: seven test cells; assay: In vitro cytotoxicity (CCK-8), average over seven test cells; type: cell-based; conditions: CC50/IC50
Method: as §1

[14] = system: MARV; conditions: 48 h
[15] = In vitro cytotoxicity (CCK-8), Hep-2 cells; type: cell-based; conditions: human, CCK-8, 48 hours
Method: as §1

[16] = In vitro cytotoxicity (CCK-8), TZM-bl cells; type: cell-based; conditions: human, CCK-8, 48 hours
Method: as §1

[17] = In vitro cytotoxicity (CCK-8), MDCK cells; type: cell-based; conditions: dog, CCK-8, 48 hours
Method: as §1

[18] = system: VSV; conditions: 48 h
[19] = In vitro cytotoxicity (CCK-8), HEK293T cells; type: cell-based; conditions: human, CCK-8, 48 hours
Method: as §1

[20] = In vitro cytotoxicity (CCK-8), MT-4 cells; type: cell-based; conditions: human, CCK-8, 48 hours
Method: as §1

[21] = In vitro cytotoxicity (CCK-8), Huh-7 cells; type: cell-based; conditions: human, CCK-8, 48 hours
Method: as §1

[22] = system: replicative HIV-1 strain JR-CSF; conditions: for IC50: replicative strain JR-CSF, 48 h
[23] = system: protease K, trypsin, or α-chymotrypsin
[24] = Temperature stability experiment (antiviral activity after storage); conditions: 300 µM aqueous solution, room temperature or 37 °C, various time periods; NL4-3 pseudovirus, TZM-bl cells
[25] = system: H7N9; conditions: 48 h
[26] = system: MERS-CoV; conditions: 48 h
[27] = LP-124 versus LP-122, LP-125 versus LP-123

Chain of N44 (P04578 538-581): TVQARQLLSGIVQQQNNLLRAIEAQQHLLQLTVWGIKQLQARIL

Row | Molecule | IC50 [1] | IC50 [2] | IC50 [3] | inhibitory activity against 12 pseudoviruses higher than that of the T20 [3] | IC50 [4] | inhibitory activity against 12 drug-resistant mutant strains higher than that of the LP-98 [4] | α-helix content, lipopeptide alone [5] | IC50 [6] | inhibitory activity against membrane fusions of 12 viruses higher than that of the T20 [6] | Tm value of the mixture with N44 [7] | α-helix content of the mixture with N44 [7] | IC50 [8] | IC50 [22] | also measured
1 | CC[C@H](C)[C@H](NC(=O)[C@H](CCCCN)NC(=O)[C@H](CCCCN)NC(=O)[C@H](CCC(=O)O)NC(=O)[C@H](Cc1c[nH]c2ccccc12)NC(=O)[C@H](CCC(=O)O)NC(=O)[C@H](CCC(=O)O)NC(=O)[C@H](Cc1c[nH]c2ccccc12)NC(=O)[C@@H](NC(C)=O)[C@@H](C)O)C(=O)N[C@@H](CCC(=O)O)C(=O)N[C@@H](CCC(=O)O)C(=O)N[C@@H](CC(C)C)C(=O)N[C@@H](CCC(=O)O)C(=O)N[C@@H](CCCCN)C(=O)N[C@@H](CCCCN)C(=O)N[C@H](C(=O)N[C@@H](CCC(=O)O)C(=O)N[C@@H](CCC(=O)O)C(=O)N[C@@H](CC(C)C)C(=O)N[C@@H](CC(C)C)C(=O)N[C@@H](CCCCN)C(=O)N[C@@H](CCCCN)C(=O)N[C@@H](C)C(=O)N[C@@H](CCC(=O)O)C(=O)N[C@@H](CCC(=O)O)C(=O)N[C@@H](CCC(N)=O)C(=O)N[C@@H](CCC(N)=O)C(=O)N[C@@H](CCCCN)C(=O)N[C@@H](CCCCN)C(=O)N[C@@H](CC(N)=O)C(=O)N[C@@H](CCC(=O)O)C(=O)N[C@@H](C)C(=O)N[C@@H](C)C(=O)N[C@@H](C)C(=O)N[C@@H](CCCCN)C(=O)N[C@@H](CCCCNC(=O)CCC(=O)O[C@H]1CC[C@@]2(C)C(=CC[C@H]3[C@@H]4CC[C@H]([C@H](C)CCCC(C)C)[C@@]4(C)CC[C@@H]32)C1)C(N)=O)[C@@H](C)CC [LP-123] (Ac-TWEEWEKKIEELEKKIEELLKKAEEQQKKNEAAAKK(Succinyl(4-O-cholesteryl))-NH2) | 0.00368 nM | 0.0146 nM | 0.0274 nM | 732 folds | 0.0555 nM | 48 folds | 56% | 0.024 nM | 466 folds | > 98 °C | 79% | 0.0181 nM | – | –
2 | CC[C@H](C)[C@H](NC(=O)[C@H](CCCCN)NC(=O)[C@H](CCCCN)NC(=O)[C@H](CCC(=O)O)NC(=O)[C@H](Cc1ccc(O)cc1)NC(=O)[C@H](CCC(=O)O)NC(=O)[C@H](CCC(=O)O)NC(=O)[C@H](Cc1ccc(O)cc1)NC(=O)[C@@H](NC(C)=O)[C@@H](C)O)C(=O)N[C@@H](CCC(=O)O)C(=O)N[C@@H](CCC(=O)O)C(=O)N[C@@H](CC(C)C)C(=O)N[C@@H](CCC(=O)O)C(=O)N[C@@H](CCCCN)C(=O)N[C@@H](CCCCN)C(=O)N[C@H](C(=O)N[C@@H](CCC(=O)O)C(=O)N[C@@H](CCC(=O)O)C(=O)N[C@@H](CC(C)C)C(=O)N[C@@H](CC(C)C)C(=O)N[C@@H](CCCCN)C(=O)N[C@@H](CCCCN)C(=O)N[C@@H](C)C(=O)N[C@@H](CCC(=O)O)C(=O)N[C@@H](CCC(=O)O)C(=O)N[C@@H](CCC(N)=O)C(=O)N[C@@H](CCC(N)=O)C(=O)N[C@@H](CCCCN)C(=O)N[C@@H](CCCCN)C(=O)N[C@@H](CC(N)=O)C(=O)N[C@@H](CCC(=O)O)C(=O)N[C@@H](C)C(=O)N[C@@H](C)C(=O)N[C@@H](C)C(=O)N[C@@H](CCCCN)C(=O)N[C@@H](CCCCNC(=O)CCC(=O)O[C@H]1CC[C@@]2(C)C(=CC[C@H]3[C@@H]4CC[C@H]([C@H](C)CCCC(C)C)[C@@]4(C)CC[C@@H]32)C1)C(N)=O)[C@@H](C)CC [LP-125] (Ac-TYEEYEKKIEELEKKIEELLKKAEEQQKKNEAAAKK(Succinyl(4-O-cholesteryl))-NH2) | 0.00111 nM | 0.00578 nM | 0.00422 nM | 4752 folds | 0.00629 nM | 423 folds | 78% | 0.0119 nM | 942 folds | 91 °C | 89% | 0.00343 nM | – | activity increased as compared to its template, SG3.1 living virus [1, 27]: ~3 folds; activity increased as compared to its template, JRFL pseudovirus [2, 27]: ~3 folds; activity increased as compared to its template, NL4-3 pseudovirus [8, 27]: about 5 folds
3 | CC[C@H](C)[C@H](NC(=O)[C@H](CCCCN)NC(=O)[C@H](CCCCN)NC(=O)[C@H](CCC(=O)O)NC(=O)[C@H](CC(C)C)NC(=O)[C@H](CCC(=O)O)NC(=O)[C@H](CCC(=O)O)NC(=O)[C@H](CC(C)C)NC(=O)[C@H](CCC(=O)O)NC(=O)[C@H](CCCCN)NC(=O)[C@H](CCC(=O)O)NC(=O)[C@H](Cc1ccc(O)cc1)NC(=O)[C@H](CCC(=O)O)NC(=O)[C@H](CCC(=O)O)NC(=O)[C@H](Cc1ccc(O)cc1)NC(=O)[C@H](CCC(=O)O)NC(C)=O)C(=O)N[C@@H](CCC(=O)O)C(=O)N[C@@H](CCC(=O)O)C(=O)N[C@@H](CC(C)C)C(=O)N[C@@H](CC(C)C)C(=O)N[C@@H](CCCCN)C(=O)N[C@@H](CCCCN)C(=O)N[C@@H](C)C(=O)N[C@@H](CCC(=O)O)C(=O)N[C@@H](CCC(=O)O)C(=O)N[C@@H](CCC(N)=O)C(=O)N[C@@H](CCC(N)=O)C(=O)N[C@@H](CCCCN)C(=O)N[C@@H](CCCCN)C(=O)N[C@@H](CC(N)=O)C(=O)N[C@@H](CCC(=O)O)C(=O)N[C@@H](C)C(=O)N[C@@H](C)C(=O)N[C@@H](C)C(=O)N[C@@H](CCCCN)C(=O)N[C@@H](CCCCNC(=O)CCC(=O)O[C@H]1CC[C@@]2(C)C(=CC[C@H]3[C@@H]4CC[C@H]([C@H](C)CCCC(C)C)[C@@]4(C)CC[C@@H]32)C1)C(N)=O [LP-127] (Ac-EYEEYEKELEELEKKIEELLKKAEEQQKKNEAAAKK(Succinyl(4-O-cholesteryl))-NH2) | – | 0.00563 nM | 0.00489 nM | 4101 folds | 0.00702 nM | 379 folds | 57% | 0.00497 nM | 2256 folds | 92 °C | 68% | 0.00501 nM | 0.0104 nM | IC50 [9]: 61.7 nM; IC50 [10]: 1730 nM; change in antiviral activity after treatment with human serum [11]: no significant change; inhibitory activity higher than that of the T20, SG3.1 ([1]; TZM-bl cells, versus T20): 1427 folds; CC50 at 48 h [12]: 14400 nM; therapeutic selective index (SI) [13]: very high; IC50 [14]: 144 nM; CC50 at 48 h [15]: 16500 nM; CC50 at 48 h [16]: 10200 nM; CC50 at 48 h [17]: 12900 nM; IC50 [18]: 1510 nM; CC50 at 48 h [19]: 9070 nM; CC50 at 48 h [20]: 15400 nM; CC50 at 48 h [21]: 31300 nM; inhibitory activity higher than the T20, JR-CSF ([22]; TZM-bl cells, versus T20): 539 folds; change in antiviral activity after treatment with three proteases [23]: no significant change; change in antiviral activity after treatment at different temperatures [24]: no significant change; IC50 [25]: 415 nM; IC50 [26]: 383 nM
4 | Enfuvirtide | 2.91 nM | – | 20.1 nM | – | – | – | – | 11.2 nM | – | – | – | – | 5.6 nM | –
